How the values were obtained:
[1] = biological target: T1, Equilibrative nucleoside transporter 2 (Homo sapiens, UniProt Q14542); assay: Binding affinity to recombinant human ENT2 expressed in Saccharomyces cerevisiae assessed as inhibition of [3H]-uridine transport after 15 mins by scintillation counting analysis; type: ADME
T1 sequence (Q14542 whole entry): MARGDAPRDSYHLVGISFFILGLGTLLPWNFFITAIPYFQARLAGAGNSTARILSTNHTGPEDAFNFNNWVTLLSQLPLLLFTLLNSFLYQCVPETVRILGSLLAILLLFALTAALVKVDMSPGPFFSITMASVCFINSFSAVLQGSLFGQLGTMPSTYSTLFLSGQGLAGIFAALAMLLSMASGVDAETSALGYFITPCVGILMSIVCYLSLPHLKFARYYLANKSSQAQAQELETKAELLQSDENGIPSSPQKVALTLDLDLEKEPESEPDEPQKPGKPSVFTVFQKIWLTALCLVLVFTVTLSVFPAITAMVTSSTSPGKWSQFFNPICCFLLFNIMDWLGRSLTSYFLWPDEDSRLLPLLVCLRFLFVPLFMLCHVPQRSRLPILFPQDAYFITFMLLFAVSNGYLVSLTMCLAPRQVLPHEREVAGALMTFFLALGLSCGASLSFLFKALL

[2] = biological target: T2, Sodium/nucleoside cotransporter 2 (Homo sapiens, UniProt O43868); assay: Binding affinity to recombinant human CNT2 expressed in Saccharomyces cerevisiae assessed as inhibition of [3H]-uridine transport after 15 mins by scintillation counting analysis; type: ADME
T2 sequence (O43868 whole entry): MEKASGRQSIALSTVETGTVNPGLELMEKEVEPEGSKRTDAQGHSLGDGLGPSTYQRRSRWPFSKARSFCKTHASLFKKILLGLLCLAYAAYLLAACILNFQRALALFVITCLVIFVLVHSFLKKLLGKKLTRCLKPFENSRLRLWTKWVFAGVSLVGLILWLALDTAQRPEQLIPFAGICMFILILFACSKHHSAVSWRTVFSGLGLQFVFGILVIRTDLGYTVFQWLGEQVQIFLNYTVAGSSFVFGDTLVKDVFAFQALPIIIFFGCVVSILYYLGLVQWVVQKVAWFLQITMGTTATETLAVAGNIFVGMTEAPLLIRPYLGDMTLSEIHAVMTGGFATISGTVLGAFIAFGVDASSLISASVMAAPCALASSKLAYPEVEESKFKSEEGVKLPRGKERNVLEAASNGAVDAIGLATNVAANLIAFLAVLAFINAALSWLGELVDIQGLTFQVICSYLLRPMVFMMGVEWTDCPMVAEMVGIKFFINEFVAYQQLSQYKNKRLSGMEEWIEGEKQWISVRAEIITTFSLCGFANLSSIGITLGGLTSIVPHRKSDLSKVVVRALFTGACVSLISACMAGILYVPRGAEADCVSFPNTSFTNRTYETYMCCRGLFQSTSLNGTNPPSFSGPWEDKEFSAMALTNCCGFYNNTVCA

[3] = biological target: T3, Solute carrier family 28 member 3 (Homo sapiens, UniProt Q9HAS3); assay: Binding affinity to recombinant human CNT3 expressed in Saccharomyces cerevisiae assessed as inhibition of [3H]-uridine transport after 5 mins by scintillation counting analysis; type: ADME
T3 sequence (Q9HAS3 whole entry): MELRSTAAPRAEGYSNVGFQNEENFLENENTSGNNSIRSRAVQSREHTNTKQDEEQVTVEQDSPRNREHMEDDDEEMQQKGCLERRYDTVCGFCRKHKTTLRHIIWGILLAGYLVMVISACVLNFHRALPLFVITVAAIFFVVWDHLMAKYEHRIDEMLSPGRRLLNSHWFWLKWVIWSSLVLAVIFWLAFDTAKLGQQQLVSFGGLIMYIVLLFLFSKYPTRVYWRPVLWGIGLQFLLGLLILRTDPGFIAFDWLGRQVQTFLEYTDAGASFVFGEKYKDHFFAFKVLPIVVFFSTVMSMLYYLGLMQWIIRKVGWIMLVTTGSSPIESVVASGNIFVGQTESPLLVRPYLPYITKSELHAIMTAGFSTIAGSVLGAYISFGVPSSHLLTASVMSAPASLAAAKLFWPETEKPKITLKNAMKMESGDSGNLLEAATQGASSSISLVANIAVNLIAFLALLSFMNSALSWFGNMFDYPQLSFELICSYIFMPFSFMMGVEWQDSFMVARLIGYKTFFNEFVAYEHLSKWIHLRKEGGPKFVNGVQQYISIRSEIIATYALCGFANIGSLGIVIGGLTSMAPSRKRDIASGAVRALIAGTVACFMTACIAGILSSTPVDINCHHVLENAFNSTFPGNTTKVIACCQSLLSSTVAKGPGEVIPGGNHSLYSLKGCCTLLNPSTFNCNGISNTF

[4] = biological target: T4, Sodium/nucleoside cotransporter 1 (Homo sapiens, UniProt O00337); assay: Binding affinity to recombinant human CNT1 expressed in Saccharomyces cerevisiae assessed as inhibition of [3H]-uridine transport after 15 mins by scintillation counting analysis; type: ADME
T4 sequence (O00337 whole entry): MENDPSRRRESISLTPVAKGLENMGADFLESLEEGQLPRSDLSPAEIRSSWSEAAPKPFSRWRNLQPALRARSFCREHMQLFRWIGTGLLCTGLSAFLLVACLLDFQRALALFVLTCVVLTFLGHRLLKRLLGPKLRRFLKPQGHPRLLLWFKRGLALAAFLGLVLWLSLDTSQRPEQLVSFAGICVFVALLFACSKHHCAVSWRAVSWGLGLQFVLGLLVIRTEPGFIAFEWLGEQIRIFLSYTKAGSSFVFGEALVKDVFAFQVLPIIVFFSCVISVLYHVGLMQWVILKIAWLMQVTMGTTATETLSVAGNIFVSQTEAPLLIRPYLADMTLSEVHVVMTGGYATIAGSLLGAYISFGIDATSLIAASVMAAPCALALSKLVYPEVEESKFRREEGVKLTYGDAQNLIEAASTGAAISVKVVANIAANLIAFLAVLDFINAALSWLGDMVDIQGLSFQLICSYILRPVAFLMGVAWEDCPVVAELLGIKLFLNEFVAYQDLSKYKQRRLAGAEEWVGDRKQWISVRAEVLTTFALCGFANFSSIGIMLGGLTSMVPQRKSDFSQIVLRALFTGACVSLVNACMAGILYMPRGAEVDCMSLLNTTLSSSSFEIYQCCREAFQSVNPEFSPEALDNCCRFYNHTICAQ

[5] = tested on: Brain; assay: AUC (0 to 4 hrs) in CD-1 mouse brain at 60 mg/kg, iv administered as bolus dose in presence of ENT1 inhibitor NBMPR-P; type: ADME, organism-based; set-up: time < 4 hr, dose 60 mg/kg, route intravenous; conditions: in vivo
[6] = Apparent volume of distribution at steady state in CD-1 mouse at 60 mg/kg, iv administered as bolus dose in absence of ENT1 inhibitor NBMPR-P; type: ADME, organism-based; set-up: dose 60 mg/kg, route intravenous; conditions: in vivo, read-out: Vdss(app)
[7] = tested on: Brain; assay: AUC (0 to 4 hrs) in CD-1 mouse brain at 60 mg/kg, iv administered as bolus dose in absence of ENT1 inhibitor NBMPR-P; type: ADME, organism-based; set-up: time < 4 hr, dose 60 mg/kg, route intravenous; conditions: in vivo
[8] = Apparent volume of distribution at steady state in CD-1 mouse at 60 mg/kg, iv administered as bolus dose in presence of ENT1 inhibitor NBMPR-P; type: ADME, organism-based; set-up: dose 60 mg/kg, route intravenous; conditions: in vivo, read-out: Vdss(app)
[9] = Tmax in CD-1 mouse brain at 60 mg/kg, iv administered as bolus dose in absence of ENT1 inhibitor NBMPR-P; type: ADME, organism-based; set-up: dose 60 mg/kg, route intravenous
[10] = Elimination half life in CD-1 mouse at 60 mg/kg, iv administered as bolus dose in absence of ENT1 inhibitor NBMPR-P; type: ADME, organism-based; set-up: dose 60 mg/kg, route intravenous; conditions: in vivo, read-out: beta t1/2 (converted)
[11] = Cmax in CD-1 mouse brain at 60 mg/kg, iv administered as bolus dose in absence of ENT1 inhibitor NBMPR-P; type: ADME, organism-based; set-up: dose 60 mg/kg, route intravenous
[12] = AUC (0 to infinity) in CD-1 mouse at 60 mg/kg, iv administered as bolus dose in presence of ENT1 inhibitor NBMPR-P; type: ADME, organism-based; set-up: time infinity, dose 60 mg/kg, route intravenous; conditions: plasma
[13] = Cmax in CD-1 mouse brain at 60 mg/kg, iv administered as bolus dose in presence of ENT1 inhibitor NBMPR-P; type: ADME, organism-based; set-up: dose 60 mg/kg, route intravenous
[14] = Elimination half life in CD-1 mouse at 60 mg/kg, iv administered as bolus dose in presence of ENT1 inhibitor NBMPR-P; type: ADME, organism-based; set-up: dose 60 mg/kg, route intravenous; conditions: in vivo, read-out: beta t1/2 (converted)
[15] = AUC (0 to infinity) in CD-1 mouse at 60 mg/kg, iv administered as bolus dose in absence of ENT1 inhibitor NBMPR-P; type: ADME, organism-based; set-up: time infinity, dose 60 mg/kg, route intravenous; conditions: plasma
[16] = Tmax in CD-1 mouse brain at 60 mg/kg, iv administered as bolus dose in presence of ENT1 inhibitor NBMPR-P; type: ADME, organism-based; set-up: dose 60 mg/kg, route intravenous

| Structure (SMILES) | IC50 [1] [µM] | Ki ([1]; read-out: Ki(app)) [µM] | IC50 [2] [µM] | Ki ([2]; read-out: Ki(app)) [µM] | IC50 [3] [µM] | Ki ([3]; read-out: Ki(app)) [µM] | IC50 [4] [µM] | Ki ([4]; read-out: Ki(app)) [µM] | AUC [5] [ng·h/g] | Vd [6] [L/kg] | AUC [7] [ng·h/g] | Vd [8] [L/kg] | Tmax [9] [h] | half-life [10] [h] | Cmax [11] [ng/g] | AUC(0-inf) [12] [ng·h/mL] | Cmax [13] [ng/g] | half-life [14] [h] | AUC(0-inf) [15] [ng·h/mL] | Tmax [16] [h] |
| --- | --- | --- | --- | --- | --- | --- | --- | --- | --- | --- | --- | --- | --- | --- | --- | --- | --- | --- | --- | --- |
| Nc1ncnc2c1ncn2[C@@H]1O[C@H](CO)[C@@H](O)[C@H]1O [ADENOSINE] | 106 | 106 | 5.5 | 5.3 | 3.3 | 2.1 | 5.5 | 1.8 | – | – | – | – | – | – | – | – | – | – | – | – |
| Nc1nc(F)nc2c1ncn2[C@@H]1O[C@H](CO)[C@@H](O)[C@@H]1O [FLUDARABINE] | – | – | – | – | – | – | – | – | 2490 | 1.6 | 11300 | 2.6 | 0.88 | 1.7 | 6050 | 65700 | 801 | 2.2 | 39600 | 1.63 |

Reference: ChEMBL document CHEMBL3526052 (Drug Metab Dispos, 2013)
